{
  "source": "patent US20120065198A2",
  "about": "“Detection and Treatment of Schizophrenia” (Tokai University Educational System, priority 2007, published 2012)",
  "data": [
    {"test_system": "pentosidine formation", "experiment": "Inhibitory effects of phenylene derivatives (II) on AGEs (pentosidine) formation", "format": "biochemical", "set-up": "AGE Formation Inhibition Ratio (%): concentration or dose not given beside the values", "conditions": "same method used in Test Example 1", "method": "(§1) Plasma was collected from hemodialysis patients prior to dialysis with the patients' consent, and the plasma was filtered and sterilized. To the plasma (450 μL) was added solutions of TM-2002 in dimethylsulfoxide (50 μL) (final concentrations: 0.8, 2.0, and 5.0 mM), and the mixtures were incubated for 1 week at 37° C. The levels of the pentosidine formation were measured.\nPentosidine was measured as follows. To each sample (50 μL) after incubation was added an equal volume of 10% trichloroacetic acid, and the mixture was subsequently centrifuged at 5,000 g for 5 minutes. After the supernatant was removed, the pellet was washed with 5% trichloroacetic acid (300 μL). The pellet was dried under reduced pressure, and subsequently hydrolyzed in a 6N HCl solution (100 μL) under a nitrogen atmosphere for 16 hours at 110° C. To the acid hydrolysate was then added 5N NaOH (100 μL) and 0.5 M phosphate buffer (pH 7.4) (200 μL); the mixture was subsequently filtered through a micropore filter with 0.5 μm pores and diluted with PBS. The concentration of the released pentosidine was measured by reverse-phase HPLC using a fluorescence detector (RF-10A, Shimadzu Corporation) (Miyata, T. et al.; Proc. Natl. Acad. Sci. USA, Vol. 93, p. 2353-2358, 1996). The effluent was monitored at the excitation/emission wavelength of 335/385 nm. Synthetic pentosidine was used as the reference material. The detection limit of pentosidine was 0.1 pmol/mg protein. […]", "units": {"AGE Formation Inhibition Ratio (%)": "%", "Pentosidine Formation Ratio (%)": "%"}, "values": [
      {"smiles": "O=C1NC(=O)C(c2ccc(CN(C(=O)CCc3ccccc3)c3cccc(C(=O)O)c3)cc2)S1", "note": "(stereo not drawn) [(II-20)]", "AGE Formation Inhibition Ratio (%)": 92, "Pentosidine Formation Ratio (%)": 8},
      {"smiles": "O=C(O)c1cccc(N(Cc2ccc(-c3ccccc3-c3nnn[nH]3)cc2)C(=O)CCc2ccccc2)c1", "note": "[(II-1)]", "AGE Formation Inhibition Ratio (%)": 80, "Pentosidine Formation Ratio (%)": 20},
      {"smiles": "Cc1oc(-c2ccccc2)nc1CC(=O)N(Cc1ccc(C2SC(=O)NC2=O)cc1)c1cccc(C(=O)O)c1", "note": "(stereo not drawn) [(II-33)]", "AGE Formation Inhibition Ratio (%)": 82, "Pentosidine Formation Ratio (%)": 18},
      {"smiles": "O=C1NC(=O)C(c2ccc(CN(c3cccc(C(=O)O)c3)S(=O)(=O)c3ccc4ccccc4c3)cc2)S1", "note": "(stereo not drawn) [(II-25)]", "AGE Formation Inhibition Ratio (%)": 99, "Pentosidine Formation Ratio (%)": 1},
      {"smiles": "CS(=O)(=O)N(Cc1ccc(C2SC(=O)NC2=O)cc1)c1ccccc1", "note": "(stereo not drawn) [(II-8)]", "AGE Formation Inhibition Ratio (%)": 81, "Pentosidine Formation Ratio (%)": 19},
      {"smiles": "CC1(C)Cc2ccc(C(=O)O)cc2N(Cc2ccc(C3SC(=O)NC3=O)cc2)C1=O", "note": "(stereo not drawn) [(II-29)]", "AGE Formation Inhibition Ratio (%)": 86, "Pentosidine Formation Ratio (%)": 14},
      {"smiles": "O=C(O)c1cccc(N(CCc2ccccc2)Cc2ccc(-c3ccccc3-c3nnn[nH]3)cc2)c1", "note": "[(II-32)]", "AGE Formation Inhibition Ratio (%)": 81, "Pentosidine Formation Ratio (%)": 19},
      {"smiles": "O=C1NC(=O)C(c2ccc(CN3C(=O)C4(CC4)Cc4ccc(C(=O)O)cc43)cc2)S1", "note": "(stereo not drawn) [(II-30)]", "AGE Formation Inhibition Ratio (%)": 87, "Pentosidine Formation Ratio (%)": 13},
      {"smiles": "Cc1ccc(S(=O)(=O)N(Cc2ccc(C3SC(=O)NC3=O)cc2)c2cccc(C(=O)O)c2)cc1", "note": "(stereo not drawn) [(II-23)]", "AGE Formation Inhibition Ratio (%)": 90, "Pentosidine Formation Ratio (%)": 10},
      {"smiles": "O=C1NC(=O)C(c2ccc(CN(c3cccc(C(=O)O)c3)S(=O)(=O)c3ccccc3)cc2)S1", "note": "(stereo not drawn) [(II-22)]", "AGE Formation Inhibition Ratio (%)": 85, "Pentosidine Formation Ratio (%)": 15},
      {"smiles": "O=C1NC(=O)C(c2ccc(Cn3c(-c4ccccn4)nc4ccccc43)cc2)S1", "note": "(stereo not drawn) [(II-15)]", "AGE Formation Inhibition Ratio (%)": 80, "Pentosidine Formation Ratio (%)": 20},
      {"smiles": "O=C1NC(=O)C(c2ccc(CN(c3cccc(C(=O)O)c3)S(=O)(=O)c3ccc(-c4ccccc4)cc3)cc2)S1", "note": "(stereo not drawn) [(II-24)]", "AGE Formation Inhibition Ratio (%)": 91, "Pentosidine Formation Ratio (%)": 9},
      {"smiles": "O=C1NC(=O)C(c2ccc(Cn3ccnc3-c3ccccc3)cc2)S1", "note": "(stereo not drawn) [(II-16)]", "AGE Formation Inhibition Ratio (%)": 85, "Pentosidine Formation Ratio (%)": 15},
      {"smiles": "CS(=O)(=O)N(Cc1ccc(C2SC(=O)NC2=O)cc1)c1cccc(C(=O)O)c1", "note": "(stereo not drawn) [(II-10)]", "AGE Formation Inhibition Ratio (%)": 86, "Pentosidine Formation Ratio (%)": 14},
      {"smiles": "CCCCCN(Cc1ccc(C2SC(=O)NC2=O)cc1)c1cccc(C(=O)O)c1", "note": "(stereo not drawn) [(II-6)]", "AGE Formation Inhibition Ratio (%)": 80, "Pentosidine Formation Ratio (%)": 20},
      {"smiles": "O=C1NC(=O)C(c2ccc(CN(C(=O)c3ccc(-c4ccccc4)cc3)c3cccc(C(=O)O)c3)cc2)S1", "note": "(stereo not drawn) [(II-21)]", "AGE Formation Inhibition Ratio (%)": 98, "Pentosidine Formation Ratio (%)": 2},
      {"smiles": "CCCc1cc2ccc(C(=O)O)cc2n(Cc2ccc(C3SC(=O)NC3=O)cc2)c1=O", "note": "(stereo not drawn) [(II-17)]", "AGE Formation Inhibition Ratio (%)": 84, "Pentosidine Formation Ratio (%)": 16},
      {"smiles": "O=C1NC(=O)C(c2ccc(CN(C(=O)c3cccnc3)c3cccc(C(=O)O)c3)cc2)S1", "note": "(stereo not drawn) [(II-19)]", "AGE Formation Inhibition Ratio (%)": 80, "Pentosidine Formation Ratio (%)": 20},
      {"smiles": "O=C(O)c1cccc(N(CC(=O)c2ccccc2)Cc2ccc(-c3ccccc3-c3nnn[nH]3)cc2)c1", "note": "[(II-42)]", "AGE Formation Inhibition Ratio (%)": 93, "Pentosidine Formation Ratio (%)": 7},
      {"smiles": "CC1CCc2ccc(C(=O)O)cc2N1Cc1ccc(C2SC(=O)NC2=O)cc1", "note": "(stereo not drawn) [(II-7)]", "AGE Formation Inhibition Ratio (%)": 87, "Pentosidine Formation Ratio (%)": 13},
      {"smiles": "CCCC1CCc2ccc(C(=O)O)cc2N(Cc2ccc(C3SC(=O)NC3=O)cc2)C1=O", "note": "(stereo not drawn) [(II-28)]", "AGE Formation Inhibition Ratio (%)": 84, "Pentosidine Formation Ratio (%)": 16},
      {"smiles": "O=C1NC(=O)C(c2ccc(CN(Cc3ccc(-c4ccccc4)cc3)c3cccc(C(=O)O)c3)cc2)S1", "note": "(stereo not drawn) [(II-68)]", "AGE Formation Inhibition Ratio (%)": 80, "Pentosidine Formation Ratio (%)": 20},
      {"smiles": "Cc1nc(-c2ccc(S(=O)(=O)N(Cc3ccc(C4SC(=O)NC4=O)cc3)c3cccc(C(=O)O)c3)cc2)cs1", "note": "(stereo not drawn) [(II-63)]", "AGE Formation Inhibition Ratio (%)": 80, "Pentosidine Formation Ratio (%)": 20},
      {"smiles": "O=C1NC(=O)C(c2ccc(CN(C(=O)C3CCCCC3)c3cccc(C(=O)O)c3)cc2)S1", "note": "(stereo not drawn) [(II-18)]", "AGE Formation Inhibition Ratio (%)": 85, "Pentosidine Formation Ratio (%)": 15},
      {"smiles": "CCCCS(=O)(=O)N(Cc1ccc(C2SC(=O)NC2=O)cc1)c1cccc(C(=O)O)c1", "note": "(stereo not drawn) [(II-11)]", "AGE Formation Inhibition Ratio (%)": 89, "Pentosidine Formation Ratio (%)": 11},
      {"smiles": "CCCCS(=O)(=O)N(Cc1ccc(C2SC(=O)NC2=O)cc1)c1ccccc1", "note": "(stereo not drawn) [(II-9)]", "AGE Formation Inhibition Ratio (%)": 80, "Pentosidine Formation Ratio (%)": 20}
    ]},
    {"test_system": "pentosidine formation", "experiment": "Inhibitory activity on pentosidine formation, samples incubated with BSA and arabinose", "format": "biochemical", "conditions": "5 mM drug; incubated with BSA and arabinose instead of patient plasma", "method": "as §1\n(§2) Pentosidine was measured as follows. To each sample (50 μL) after incubation was added an equal volume of 10% trichloroacetic acid, and the mixture was subsequently centrifuged at 5,000 g for 5 minutes. After the supernatant was removed, the pellet was washed with 5% trichloroacetic acid (300 μL). The pellet was dried under reduced pressure, and subsequently hydrolyzed in a 6N HCl solution (100 μL) under a nitrogen atmosphere for 16 hours at 110° C. To the acid hydrolysate was then added 5N NaOH (100 μL) and 0.5 M phosphate buffer (pH 7.4) (200 μL); the mixture was subsequently filtered through a micropore filter with 0.5 μm pores and diluted with PBS. The concentration of the released pentosidine was measured by reverse-phase HPLC using a fluorescence detector (RF-10A, Shimadzu Corporation) (Miyata, T. et al.; Proc. Natl. Acad. Sci. USA, Vol. 93, p. 2353-2358, 1996). The effluent was monitored at the excitation/emission wavelength of 335/385 nm. Synthetic pentosidine was used as the reference material. The detection limit of pentosidine was 0.1 pmol/mg protein.\n(§3) (2) Other edaravone analogues (Compounds (1) or (2)) were investigated for their inhibitory activities on pentosidine formation in the same manner as in Section (1) above, except that the samples were incubated with BSA and arabinose instead of the patient plasma. In the tables, “-” means that the test was not conducted.", "units": {"Pentosidine Formation Ratio (%) at 5 mM Drug Concentration": "%"}, "values": [
      {"smiles": "CC1=NN(c2ccccc2)C(=O)C1Sc1nc(-c2ccc(C)cc2)cs1", "note": "(stereo not drawn) [compound 21, 5-methyl-2-phenyl-4-(4-p-toluyl-thiazol-2-ylsulfanyl)-2,4-dihydro-pyrazole-3-one]", "Pentosidine Formation Ratio (%) at 5 mM Drug Concentration": 42.07},
      {"smiles": "CC1=NN(c2ccccc2)C(=O)/C1=C/c1c(C)nn(-c2ccccc2)c1O", "note": "[compound 66, 4-(5-hydroxy-3-methyl-1-phenyl-1H-pyrazol-4-ylmethylene)-5-methyl-2-phenyl-2,4-dihydro-pyrazol-3-one]", "Pentosidine Formation Ratio (%) at 5 mM Drug Concentration": 15.17},
      {"smiles": "CC1=NN(c2ccccc2Cl)C(=O)/C1=C/c1ccc(N(C)C)cc1", "note": "[compound 32, 2-(2-chloro-phenyl)-4-(4-dimethylamino-benzylidene)-5-methyl-2,4-dihydro-pyrazol-3-one]", "Pentosidine Formation Ratio (%) at 5 mM Drug Concentration": 8.7},
      {"smiles": "CC1=NN(c2ccc(F)cc2)C(=O)/C1=C\\c1c(C)nn(-c2ccccc2C)c1O", "note": "[compound 46, 2-(4-fluoro-phenyl)-4-(5-hydroxy-3-methyl-1-o-toluyl-1H-pyrazol-4-ylmethylene)-5-methyl-2,4-dihydro-pyrazol-3-one]", "Pentosidine Formation Ratio (%) at 5 mM Drug Concentration": 15.69},
      {"smiles": "CCc1ccc(N2N=C(C)/C(=C\\c3ccc(O)cc3)C2=O)cc1", "note": "[compound 48, 2-(4-ethyl-phenyl)-4-(4-hydroxy-benzylidene)-5-methyl-2,4-dihydro-pyrazol-3-one]", "Pentosidine Formation Ratio (%) at 5 mM Drug Concentration": 0.02},
      {"smiles": "COc1ccc(-c2csc(SC3C(=O)N(c4ccccc4)N=C3C)n2)cc1", "note": "(stereo not drawn) [compound 19]", "Pentosidine Formation Ratio (%) at 5 mM Drug Concentration": 40.19},
      {"smiles": "CC1=NN(c2ccc(S(N)(=O)=O)cc2)C(=O)/C1=C/c1ccc(O)cc1", "note": "[compound 49, 4-[4-(4-hydroxy-benzylidene)-3-methyl-5-oxo-4,5-dihydro-pyrazol-1-yl]-benzenesulfonamide]", "Pentosidine Formation Ratio (%) at 5 mM Drug Concentration": 7.09},
      {"smiles": "O=C(O)c1cccc(N2N=C(c3ccccc3)/C(=C/c3ccccc3O)C2=O)c1", "note": "[compound 37]", "Pentosidine Formation Ratio (%) at 5 mM Drug Concentration": 0.02},
      {"smiles": "COc1cc(/C=C2/C(=O)N(c3ccc(C(=O)OC(C)C)cc3)N=C2C)ccc1O", "note": "[compound 60]", "Pentosidine Formation Ratio (%) at 5 mM Drug Concentration": 9.02},
      {"smiles": "CC1=NN(c2ccccc2)C(=O)C1(N1CCOCC1)N1CCOCC1", "note": "[compound 26, 5-methyl-4,4-dimorpholine-4-yl-2-phenyl-2,4-dihydro-pyrazol-3-one]", "Pentosidine Formation Ratio (%) at 5 mM Drug Concentration": 50.68},
      {"smiles": "CN(C)c1ccc(/C=C2\\C(=O)N(c3ccc(S(N)(=O)=O)cc3)N=C2C(F)(F)F)cc1", "note": "[compound 51, 4-[4-(4-dimethylamino-benzyliden)-5-oxo-3-trifluoromethyl-4,5-dihydro-pyrazol-1-yl]-benzenesulfonamide]", "Pentosidine Formation Ratio (%) at 5 mM Drug Concentration": 41.68},
      {"smiles": "CC1=NN(c2ccc3ccccc3c2)C(=O)/C1=C/c1ccc(O)cc1", "note": "[compound 58]", "Pentosidine Formation Ratio (%) at 5 mM Drug Concentration": 0.07}
    ]},
    {"test_system": "pentosidine formation", "experiment": "Inhibitory activity on pentosidine formation, samples incubated with BSA and arabinose", "format": "biochemical", "conditions": "Table 13; incubated with BSA and arabinose instead of patient plasma", "method": "as §1, §2, §3", "units": {"Pentosidine Formation Ratio (%) at 5 Concentration": "%"}, "values": [
      {"smiles": "CC1=NN(c2cccc(Cl)c2)C(=O)/C1=N/O", "note": "[compound 73, 2-(3-chloro-phenyl)-5-methyl-2H-pyrazol-3,4-dione-4-oxime]", "Pentosidine Formation Ratio (%) at 5 Concentration": 66.42},
      {"smiles": "CC1=NN(c2cccc(Cl)c2)C(=O)/C1=C/c1ccc(O)cc1", "note": "[compound 71, 2-(3-chloro-phenyl)-4-(4-hydroxy-benzylidene)-5-methyl-2,4-dihydropyrazol-3-one]", "Pentosidine Formation Ratio (%) at 5 Concentration": 4.63}
    ]}
  ]
}
